Measured values taken from patent US20200147149A1, “COMPOSITIONS AND METHODS FOR THE MODULATION OF GUT SENSORY CELLS” (Duke University, priority 2017, published 2020).
“Also recorded” adds a separate entry of the source.

Legend:
[1] = test system: vagus nerve; test: Vagus nerve recording during intraluminal (duodenal) nutrient or CCK perfusion; format: in vivo, mouse; conditions: for time to maximum peak firing rate after the onset of the stimulus: CCK 870 nM or sucrose 300 mM intraluminal, FIG. 30C
Method: (§1) Wild-type control (n=5-9), CckCRE_ChR2-tdTomato (n=6), CckCRE_Halorhodopsin-YFP (n=5), and Vglut1CRE_ChR2-YFP (n=6) mice were used for vagal recordings. Mice were anesthetized with 3 mg/g-mouse urethane 1 hour before surgery then with 0.5-1% isoflurane. A section of neck skin was removed between the jaw and clavicle. The thyroid was reflected bilaterally, and the carotid bundle was exposed using coarse dissection. The carotid nerve was separated from the vagus nerve using a curved blunt probe. Two platinum iridium wires (0.001″ diameter, PTFE coated, 10% Ir 90% Pt; Medwire by Sigmund Cohn Corp) were looped around the vagus nerve for recording. Mineral oil was used to insulate the vagus nerve from surrounding tissue. The small intestine was exposed by removing a section of skin and peritoneum. A 20 gauge gavage needle was surgically inserted through the stomach wall and into the duodenum. The gavage needle was sutured in place beyond the pyloric sphincter. Saline and stimulant tubes were connected to the gavage needle. For optogenetic experiments, a fiber optic cable (FT020, ThorLabs) was threaded through the gavage needle into the lumen of the duodenum. A perfusion exit incision was made 10 cm distal to the pyloric sphincter. During each recording, PBS was constantly perfused through the duodenum using a peristaltic pump (Cole-Parmer) at the lowest setting for a flow rate of ˜400 uL PBS per minute. Stimulation conditions were applied after recording 2 minutes of baseline activity. During whole nutrient stimulation conditions, PBS perfusion was continuous and 200 μL of ENSURE® was perfused through the second tube for 1 minute using a syringe pump. […] During CCK stimulation conditions, PBS perfusion was continuous, and 200 μL of 2.9 μM CCK octapeptide-sulfated (BaChem) was perfused through the second tube for 1 minute using a syringe pump (Fusion 200, Chemyx) for a final concentration of ˜870 nM CCK in PBS (10 μg/kg dose). […] Final stimulant concentrations were determined using the ratio of dilution and confirmed by osmolarity testing (Model 3320 Osmometer, Advanced Instruments Inc.). During 473 nm laser stimulation conditions, PBS perfusion was continuous, and the laser was pulsed for 1 minute at 40 Hz, 4 volts peak voltage, 20% duty cycle (473 nm, 80 mW laser, RGBlase).
Extracellular voltage was recorded from a pair of platinum iridium wires as described above. A differential amplifier and bandpass filter (1000× gain, 300 Hz-5 kHz bandpass filter; A-M Systems LLC) was used and the signal was processed using a data acquisition board and software (20 kHz sampling rate; Signal Express, National Instruments Corp). The raw data was analyzed using a spike sorting algorithm (MATLAB by MathWorks). Spikes were detected using simple threshold detection based on RMS noise. The firing rate was calculated using a Gaussian kernel smoothing algorithm (200-ms time scale).
Stimulation response was quantified as the maximum firing rate after stimulation (stimulant conditions) or during recording (baseline). Each trial serves as its own control by normalizing the maximum firing rate to the average baseline firing rate (defined as the first two minutes of recording, prior to stimulation onset). Mice were excluded from analysis if no sucrose response was present throughout recording. Maximum firing rate was analyzed across genotype, stimulation condition, and their interaction term by ANOVA, followed by HSD post hoc testing (iMP by SAS Institute).

[2] = test system: iGluSnFR-HEK cells; test: iGluSnFR-HEK cells cultured alone, multiphoton imaging; format: cell-based; conditions: glutamate 100 μM
Method: HEK 293/17 cells (ATCC CRL-11268) were maintained in DMEM (Gibco 11965) supplemented with 10% FBS (Corning 35-010-CV), Glutamax, and non-essential amino acids (both Gibco). Cells were transfected with 1 ug plasmid pCMV(MinDis) iGluSnFR (Addgene 41732) using 1 ul Lipofectamine 2000 in Optimem (Gibco) in 24-well plates.
The 5.2 Kb iGluSnFR (pCMV(MinDis).iGluSnFR was a gift from Loren Looger; Addgene plasmid #41732) was moved to the zeocin resistant backbone of Addgene #51694 (DRH296: FCK-Optopatch2 was a gift from Adam Cohen) as a NdeI+XhoI fragment. The resulting plasmid (pMEK8) was transfected into HEK 293/17 cells (ATCC CRL-11268) using 1 μl Lipofectamine 2000/ug DNA. Cells were maintained in DMEM (Gibco 11965) supplemented with 10% FBS (Corning 35-010-CV), Glutamax, non-essential amino acids (both Gibco) and 3 μl/ml zeocin ([…], Invitrogen).
CckCRE_tdTomato enteroendocrine cells were isolated as described above. Isolated cells were mixed with iGluSnFR-HEK cells at a ratio of 10:1, then plated on 1% Matrigel coated coverslips. Control iGluSnFR-HEK cells were plated alone. Cells were incubated for 12-18 hours before imaging. Coverslips were imaged using a multiphoton microscopy system (Bruker Ultima IV with a Chameleon Vision II tunable laser). Imaging frames were captured at 1.876 fps, using 920 nm light. Imaging series were analyzed using Fiji (ImageJ), and cell traces were plotted with Excel.

[3] = test system: vagus nerve; test: Vagus nerve recording during intraluminal (duodenal) nutrient or CCK perfusion; format: in vivo, mouse; conditions: sucrose 300 mM delivered intraperitoneally, wild-type mice
[4] = test system: intestinal CCK enteroendocrine cells; test: Calcium imaging (GCaMP6s) of enteroendocrine cells in CckCRE_tdTomato intestinal organoids; format: cell-based, mouse; conditions: 10 mM sucrose; 40 mM KCl control; n=5
Method: For neurons, Phox2bCRE_GCaMP6s (n=3) nodose neurons were dissociated and plated. Nodose ganglia were dissected and digested in Liberase (Roche, 5401054001). Neurons were washed and filtered through a 70 μm cell strainer, then plated on 12 mm coverslips and placed in an incubator overnight. Cells were imaged 1-2 days later. Coverslips were placed in the recording chamber of a Zeiss Examiner Z1 and imaged with a Hamamatsu camera (Orca-flash4.0; C11440) using the Zeiss ZEN software package. For enteroendocrine cells, CckCRE_tdTomato organoids with transduced with ΔG-rabies-GCaMP6s. Organoids were imaged using multi photon microscopy 3-4 days after transduction. Imaging buffer (in mM: 140 NaCl, 5 KCl, 2 CaCl2, 2 MgCl2, 10 HEPES) was continuously perfused over the coverslips. […] Images were analyzed with Fiji ([…]), and cell traces were plotted with Matlab.

[5] = test system: glutamate receptor; test: Antagonist studies: glutamate receptor antagonists on vagal nerve firing rate response to sucrose or 473 nm laser; format: in vivo, mouse; conditions: sucrose-300 mM; for time to peak (speed) of vagal response to sucrose: after KA/AP3 (150 μg/kg kynurenic acid + 1 mg/kg AP-3) or KA 150 μg/kg alone, sucrose alone 92.8 seconds, 1 mg/kg
Method: as §1, with “During 473 nm laser stimulation conditions, PBS perfusion was continuous, and the laser was pulsed for 1 minute at 40 Hz, 4 volts peak voltage, 20% duty cycle (473 nm, 80 mW laser, RGBlase).” left out
Extracellular voltage was recorded from a pair of platinum iridium wires as described above. […] The raw data was analyzed using a spike sorting algorithm (MATLAB by MathWorks). Spikes were detected using simple threshold detection based on RMS noise. The firing rate was calculated using a Gaussian kernel smoothing algorithm (200-ms time scale).
Stimulation response was quantified as the maximum firing rate after stimulation (stimulant conditions) or during recording (baseline). […] Maximum firing rate was analyzed across genotype, stimulation condition, and their interaction term by ANOVA, followed by HSD post hoc testing (iMP by SAS Institute).

[6] = test system: ionotropic glutamate receptor; test: Patch-clamp of nodose neurons co-cultured with CckCRE_ChR2 cells, photo-stimulation and microperfusion of glutamate blocker; format: cell-based, mouse; conditions: kynurenic acid 3 mM, n=4 pairs
Method: The small intestines of CckGFP and CckCRE_ChR2-tdTomato mice were dissected and flushed twice with cold PBS. The intestine was cut open lengthwise and cut again into ˜1 cm pieces. Tissue pieces were incubated with 3 mM EDTA at 4° C. for 15 minutes then at 37° C. for 15 minutes. New cold PBS was added and villi and crypts were mechanically detached. Villi and crypts were spun down and further digested in Collagenase and Dispase. Cells were spun down and re-suspended in L-15 media with 5% FBS and DNase to prevent cell clumping. Cells were passed through a 70 μm then 40 μm cell strainer to isolate single cells. Then cells were sorted using Fluorescence Activated Cell sorting (BD FACSAria) selecting for GFP fluorescence cells. […]
Enteroendocrine cells and nodose neurons were co-cultured as described above. […] CCK-producing enteroendocrine cells were identified by GFP expression and neurons by their morphology and lack of fluorescence. […] At the resting membrane potential, cell properties such as input resistance, and spike threshold were determined using 200 ms steps from −40 pA to 100 pA in 20 pA increment. After that, baseline neuron activity was recorded in current-clamp or voltage-clamp for 5 min before exposure to glucose (20 mM) for 30-60 sec, followed by a wash with no glucose-containing extracellular solution. […] EPSC responses were recorded for 1 second after light stimulation. […]

In the case of “CCK8: CCK octapeptide-sulfated (BaChem) [reference compound]”, the “time to maximum peak firing rate after the onset of the stimulus” value ([1]; wild-type mice) is reported as “about 180 s” and the “vagal firing rate (maximum)” value ([1]; CCK8 870 nM (10 μg/kg) infused into the intestinal lumen, wild-type mice) is reported as “increased the vagal firing rate to a similar maximum reached by sucrose”.
In the case of `N[C@@H](CCC(=O)O)C(=O)O` [glutamate, reference compound], the “fluorescence response of iGluSnFR-HEK cells cultured alone” value [2] is reported as “did respond; also recorded: causes an increase in fluorescence”.
For `OC[C@H]1O[C@@](CO)(O[C@H]2O[C@H](CO)[C@@H](O)[C@H](O)[C@H]2O)[C@@H](O)[C@@H]1O` [sucrose], the vagal firing rate [3] was “not observed; also recorded: did not increase vagal firing rate”, the “time to maximum peak firing rate after the onset of the stimulus” value ([1]; wild-type mice) was “about 60 s” and the vagal response ([1]; luminal sucrose 300 mM, CckCRE_Halo-YFP mice, no laser) was “elicited a vagal response”. The vagal firing rate ([1]; sucrose 100 mM-300 mM (300 mM in figures) perfused intraluminally, wild-type mice, vs baseline) was “significantly increased; also recorded: stimulate”, the “time to peak of vagal response” value ([1]; sucrose-300 mM without antagonist, wild-type mice, average, FIG. 25D) was 92.8 s and the vagal activity ([1]; sucrose-300 mM, Vglut1CRE_ChR2 mice) was “stimulate vagal activity”. For the same compound, the “magnitude of the sugar response as percent fluorescence of the KCl response” value [4] was 72.4±10.6%.
For `O=C(O)c1cc(=O)c2ccccc2[nH]1` [kynurenic acid], the “effect on maximum (peak) normalized vagal firing rate in response to sucrose” value ([5]; KA/AP3 = 150 μg/kg kynurenic acid + 1 mg/kg AP-3, or KA 150 μg/kg alone, wild-type mice) was “do not”, the “time to peak (speed) of vagal response to sucrose” value [5] was “about 180 seconds” and the “time to peak (speed) of vagal response to sucrose” value ([5]; listed as KA) was 198 s. The “effect on rapid (first 60 seconds) vagal response to sucrose” value ([5]; kynurenic acid alone (150 μg/kg; dose range 1.5 μg/kg-1.5 mg/kg in FIG. 32), 1.5 mg/kg) was “suppressed; also recorded: attenuates rapid vagal response but not prolonged vagal response”, the “effect on light (470/473 nm) evoked EPSCs in connected nodose neurons” value [6] was “abolished” and the “light evoked response after the blocker is washed away” value ([6]; wash) was “recovered”.
